Reference: US20100286074A1, “PHARMACEUTICAL USE OF G[…] MIXTURE THEREOF AND PHARMACEUTICAL COMPOSITION OF G[…] USE THEREOF” (LIMIN PHARMACEUTICAL FACTORY, LIVZON GROUP, priority 2007, published 2010)
Structures can show the parent of a compound that is named as a salt.

Key:
bleeding time = experiment: Bleeding time (Duke Method) in patients; type: in vivo, human
Protocol: (§1) The basic drugs taken by the patients for treating their cardiovascular and cerebrovascular diseases were maintained the same in terms of dosage and usage during the period for observation, but they are forbidden to take anticoagulant drug, such as aspirin, dipyridamole or Phenylbutazone. The administration was stopped at the end of 4th week and re-examination was performed to observe the change of indexes.
(§2) Duke Method and Test Tube Method were used for determination respectively. The same method was used for the same case. The values are compared before and after the determination, and the changing values are calculated.

[1] = Adverse reactions in patients
Description: (§3) The course for both experimental group and control group are four weeks.

[2] = Laboratory examination: liver function, blood and urine routine; type: in vivo, human
[3] = system: platelet aggregation induced by ADP; experiment: Platelet aggregation induced by ADP in patients after drug administration; type: in vivo, human; conditions: for platelet aggregation rate: patients, x ± s
Description: • a. The patients with chronic cardiovascular and cerebrovascular diseases, and the course of disease >1 month; • b.
• a. The patients attacked by acute myocardial infarction or stroke in one month; • b. […] The patients with medical history of serious liver, kidney disease, or digestive tract or other organ bleeding; • d. The persons with reduced granulocytes or platelets.
as §3, §1
Induction experiment of two different concentrations of ADP (0.5 μmol/L and 1.0 μmol/L) was performed and re-examination was conducted on the 2nd and 4th weekends.
In Table 1, 0.5 and 1.0 represent the induction rate of 0.5 μmol/L of ADP and 1.0 μmol/L of ADP respectively.

clotting time = experiment: Clotting time (Test Tube Method) in patients; type: in vivo, human
Protocol: as §1, §2

[4] = after taking drug (four-week course)
[5] = before taking drug (baseline of the group)
[6] = four weeks of one tablet per day oral, induction with 0.5 μmol/L ADP
[7] = four weeks of one tablet per day oral, induction with 1.0 μmol/L ADP
[8] = two weeks of one tablet per day oral, induction with 0.5 μmol/L ADP
[9] = two weeks of one tablet per day oral, induction with 1.0 μmol/L ADP

Row | SMILES | bleeding time (bleeding time; [4]) [min] | bleeding time (bleeding time; [5]) [min] | cases with skin rash, hoarseness and mild dysphagia ([1]; human, in vivo, 2 weeks) [cases] | adverse reactions incidence ([1]; human, in vivo, 4 weeks) [%] | incidence of conjunctiva bleeding, purpura and bleeding spot on skin ([1]; human, in vivo, 4 weeks) [%] | liver function, blood and urine routine ([2]; in vivo) | platelet aggregation rate [3, 6] [%] | platelet aggregation rate [3, 7] [%] | platelet aggregation rate [3, 8] [%] | platelet aggregation rate [3, 9] [%] | adverse reactions incidence ([1]; four-week course, mainly dizziness, nausea, conjunctiva bleeding and bleeding spot on skin) [%] | liver function, blood and urine routine ([2]; before taking drugs vs after taking drugs for 4 weeks, all within normal limits) | platelet aggregation rate compared with the control group (TCP) ([3]; after taking drugs for 4 weeks) | clotting time (clotting time; [4]) [min] | clotting time (clotting time; [5]) [min]
1 | Clc1ccccc1CN1CCc2sccc2C1 [TCP, ticlopidine hydrochloride, reference compound] | 2.29 ± 1.40 | 1.73 ± 1.35 | 2 | 11.87 | 3.45 | do not change significantly | 32.8 ± 23.1 | 37.2 ± 25.4 | 28.3 ± 23.8 | 35.3 ± 20.8 | – | – | – | – | –
2 | CC(C)=CCC[C@](C)(O)[C@H]1CC[C@]2(C)[C@@H]1[C@H](O)C[C@@H]1[C@@]3(C)CC[C@H](O)C(C)(C)[C@@H]3[C@@H](O[C@@H]3O[C@H](CO)[C@@H](O)[C@H](O)[C@H]3O)C[C@]12C [ginsenoside Rh1] | 1.89 ± 1.11 | 1.72 ± 1.20 | – | – | – | – | 28.8 ± 23.4 | 34.3 ± 25.6 | 28.7 ± 22.5 | 35.4 ± 23.4 | 6.86 | do not change significantly | smaller than that of the control group obviously | 7.83 ± 2.55 | 7.17 ± 2.59
